Test results published in patent publication US12337003B2, “Pharmaceutical compositions for combination therapy” (Intercept Pharmaceuticals, Inc., priority 2015, dated 2025).

Tested on: APOE*3Leiden.CETP transgenic mice on high fat diet
Assay: Diet induced NASH in APOE*3Leiden.CETP mice, hepatic inflammation score
Type: in vivo
Description: This experiment was performed to evaluate the effects of OCA and fenofibrate, alone or in combination, on the development of diet induced NASH and liver fibrosis in APOE*3Leiden.CETP transgenic mice. Hepatic gene expression profiling and subsequent pathway analysis were performed to determine whether the combination regulates novel genes not regulated by either monotherapy treatment, and/or more strongly regulates genes also impacted by the monotherapy.
Male APOE*3Leiden.CETP transgenic mice (9-21 weeks old) were obtained and housed 2-5 mice per cage. The mice were fed a high fat diet containing 24% lard and 1% (w/w) cholesterol. The run in period was 15 weeks on the high fat diet. At week 16, mice were matched based on age, body weight, plasma cholesterol and triglycerides after 4 h fasting.
• Mice (n=15) were fed a high fat diet during the run in weeks 0 to 14. Group 2: HFC control group • Mice (n=15) were fed a high fat diet from weeks 0 to 24. Group 3: HFC+OCA • Mice (n=15) were fed a high fat diet supplemented with OCA at a dose of 10 mg/kg once daily from week 16 to 24. Group 4: HFC+low dose fenofibrate • Mice (n=15) were fed a high fat diet supplemented with fenofibrate at a dose of 10 mg/kg once daily from week 16 to 24. Group 5: HFC+high dose fenofibrate • Mice (n=15) were fed a high fat diet supplemented with fenofibrate at a dose of 40 mg/kg once daily from week 16 to 24. Group 6: HFC+OCA+low dose fenofibrate • Mice (n=15) were fed a high fat diet supplemented with OCA at a dose of 10 mg/kg once daily and fenofibrate at a dose of 10 mg/kg once daily from week 16 to 24. Group 7: HFC+OCA+high dose fenofibrate • Mice (n=15) were fed a high fat diet supplemented with OCA at a dose of 10 mg/kg once daily and fenofibrate at a dose of 40 mg/kg once daily from week 16 to 24. Group 8: Chow control group • Mice (n=8) were feed chow from week 0 to 24. Study Design
Mice were fed a high fat chow (HFC) diet for […]. After 15 weeks on the HFC diet, HFC mice were matched into 7 groups based on age, body weight, plasma cholesterol and triglycerides after 4 h fasting. Mice were treated with of OCA and fenofibrate, alone or in combination beginning at week 15 and sacrificed at week 25 in an unfasted state. One week before sacrifice, mice were labeled with D20, by i.p. injection of a bolus of D20 and subsequent addition of 4% D20 to the drinking water. Plasma (EDTA) was obtained by heart puncture and stored at −70° C. The liver was weighed and 4 pieces of liver were isolated: 1 piece (medial lobe) was fixed in 10% formalin (for NASH and fibrosis histology) and 3 pieces (sinister lobe) were snap-frozen in liquid N2 and stored individually at −70° C.
Inflammation is a key feature of NASH. Inflammation was categorized according to the procedure by Liang et al., PlosOne 2014 Dec. 9(12) and scored by quantitatively analyzing the number of inflammatory cells aggregates. In particular, the level of inflammation was evaluated by counting the number of inflammatory foci per field using a 100× magnification (view size of 3.1 mm2; average of five different fields).

CC[C@H]1[C@@H](O)[C@@H]2[C@H](CC[C@]3(C)[C@@H]([C@H](C)CCC(=O)O)CC[C@@H]23)[C@@]2(C)CC[C@@H](O)C[C@@H]12 [OCA, 3α,7α-dihydroxy-6α-ethyl-5β-cholan-24-oic acid]
Inflammation (# of inflammatory cell foci) (OCA 10 mg/kg and/or low dose fenofibrate 10 mg/kg, in high fat diet): 29.1 ± 22.7 | effect on number of inflammatory cell foci (after 10 weeks, OCA 10 mg/kg and/or fenofibrate 10 mg/kg, relative to vehicle control): neither OCA (10 mg/kg) nor fenofibrate (10 mg/kg) reduced
